Experimental data taken from PubChem BioAssay (NCI).
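Cultured in 96-well plates, cells were exposed to test compound for 48 hours across five concentrations. TGI: total growth inhibition.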

Columns and labels:
Assay in all cases: NCI tumour cell line growth inhibition, 48 h
786-0 renal = system: 786-0 renal
A498 renal = system: A498 renal
A549 NSCLC = system: A549 NSCLC
ACHN renal = system: ACHN renal
CAKI-1 renal = system: CAKI-1 renal
CCRF-CEM leukemia = system: CCRF-CEM leukemia
COLO 205 colon = system: COLO 205 colon
DLD-1 colon = system: DLD-1 colon
DMS 114 small cell lung = system: DMS 114 small cell lung
DMS 273 small cell lung = system: DMS 273 small cell lung
EKVX NSCLC = system: EKVX NSCLC
HCC-2998 colon = system: HCC-2998 colon
HL-60(TB) leukemia = system: HL-60(TB) leukemia
HOP-18 NSCLC = system: HOP-18 NSCLC
HOP-62 NSCLC = system: HOP-62 NSCLC
HOP-92 NSCLC = system: HOP-92 NSCLC
HT29 colon = system: HT29 colon
IGROV1 ovarian = system: IGROV1 ovarian
K-562 leukemia = system: K-562 leukemia
KM12 colon = system: KM12 colon
KM20L2 colon = system: KM20L2 colon
LOX IMVI melanoma = system: LOX IMVI melanoma
LXFL 529 NSCLC = system: LXFL 529 NSCLC
M19-MEL melanoma = system: M19-MEL melanoma
MALME-3M melanoma = system: MALME-3M melanoma
MOLT-4 leukemia = system: MOLT-4 leukemia
NCI-H226 lung = system: NCI-H226 lung
NCI-H23 lung = system: NCI-H23 lung
NCI-H460 lung = system: NCI-H460 lung
NCI-H522 lung = system: NCI-H522 lung
OVCAR-4 ovarian = system: OVCAR-4 ovarian
OVCAR-8 ovarian = system: OVCAR-8 ovarian
RXF 393 renal = system: RXF 393 renal
SF-268 CNS = system: SF-268 CNS
SF-295 CNS = system: SF-295 CNS
SF-539 CNS = system: SF-539 CNS
SK-MEL-2 melanoma = system: SK-MEL-2 melanoma
SK-MEL-28 melanoma = system: SK-MEL-28 melanoma
SK-OV-3 ovarian = system: SK-OV-3 ovarian
SN12C renal = system: SN12C renal
SNB-19 CNS = system: SNB-19 CNS
SNB-78 CNS = system: SNB-78 CNS
SR leukemia = system: SR leukemia
SW-620 colon = system: SW-620 colon
TK-10 renal = system: TK-10 renal
U251 CNS = system: U251 CNS
UACC-257 melanoma = system: UACC-257 melanoma
UACC-62 melanoma = system: UACC-62 melanoma
UO-31 renal = system: UO-31 renal
XF 498 CNS = system: XF 498 CNS
HCT-116 colon = system: HCT-116 colon
HCT-15 colon = system: HCT-15 colon
M14 melanoma = system: M14 melanoma
OVCAR-3 ovarian = system: OVCAR-3 ovarian
OVCAR-5 ovarian = system: OVCAR-5 ovarian
RPMI-8226 leukemia = system: RPMI-8226 leukemia
SK-MEL-5 melanoma = system: SK-MEL-5 melanoma
SNB-75 CNS = system: SNB-75 CNS

Work on `COc1ccc2c(c1)N1CCc3cc(OC)c(OC)cc3C1C2` (stereo not drawn) yielded a TGI (786-0 renal) of over 100 µM, a TGI (A498 renal) of over 100 µM and a TGI (A549 NSCLC) of over 100 µM. The TGI (ACHN renal) was over 100 µM, the TGI (CAKI-1 renal) was over 100 µM and the TGI (CCRF-CEM leukemia) was over 100 µM. It also gave a TGI (COLO 205 colon) of over 100 µM, a TGI (DLD-1 colon) of over 100 µM and a TGI (DMS 114 small cell lung) of over 100 µM. It also gave a TGI (DMS 273 small cell lung) of over 100 µM, a TGI (EKVX NSCLC) of over 100 µM and a TGI (HCC-2998 colon) of over 100 µM. It also gave a TGI (HL-60(TB) leukemia) of over 100 µM, a TGI (HOP-18 NSCLC) of over 100 µM and a TGI (HOP-62 NSCLC) of over 100 µM. The TGI (HOP-92 NSCLC) was over 100 µM, the TGI (HT29 colon) was over 100 µM and the TGI (IGROV1 ovarian) was over 100 µM. The TGI (K-562 leukemia) was over 100 µM, the TGI (KM12 colon) was over 100 µM and the TGI (KM20L2 colon) was over 100 µM. It also gave a TGI (LOX IMVI melanoma) of over 100 µM, a TGI (LXFL 529 NSCLC) of over 100 µM and a TGI (M19-MEL melanoma) of over 100 µM. It also gave a TGI (MALME-3M melanoma) of over 100 µM, a TGI (MOLT-4 leukemia) of over 100 µM and a TGI (NCI-H226 lung) of 98.7 µM. For the same molecule, the TGI (NCI-H23 lung) was over 100 µM, the TGI (NCI-H460 lung) was over 100 µM and the TGI (NCI-H522 lung) was over 100 µM. The TGI (OVCAR-4 ovarian) was over 100 µM, the TGI (OVCAR-8 ovarian) was over 100 µM and the TGI (RXF 393 renal) was over 100 µM. The TGI (SF-268 CNS) was over 100 µM, the TGI (SF-295 CNS) was over 100 µM and the TGI (SF-539 CNS) was over 100 µM. The TGI (SK-MEL-2 melanoma) was over 100 µM, the TGI (SK-MEL-28 melanoma) was over 100 µM and the TGI (SK-OV-3 ovarian) was over 100 µM. The TGI (SN12C renal) was over 100 µM, the TGI (SNB-19 CNS) was over 100 µM and the TGI (SNB-78 CNS) was over 100 µM. It also gave a TGI (SR leukemia) of over 100 µM, a TGI (SW-620 colon) of over 100 µM and a TGI (TK-10 renal) of over 100 µM. The TGI (U251 CNS) was over 100 µM, the TGI (UACC-257 melanoma) was over 100 µM and the TGI (UACC-62 melanoma) was over 100 µM. The TGI (UO-31 renal) was over 100 µM and the TGI (XF 498 CNS) was over 100 µM.
`Cc1ccc(NC(=O)C2C(=O)N(c3ccc(C)cc3)C(=O)/C2=N\NC(N)=S)cc1` (stereo not drawn) was tested, and the TGI (786-0 renal) was over 100 µM, the TGI (A498 renal) was over 100 µM and the TGI (ACHN renal) was over 100 µM. It also gave a TGI (CAKI-1 renal) of over 100 µM, a TGI (COLO 205 colon) of over 100 µM and a TGI (DMS 114 small cell lung) of over 100 µM. For the same molecule, the TGI (DMS 273 small cell lung) was over 100 µM, the TGI (EKVX NSCLC) was over 100 µM and the TGI (HCC-2998 colon) was over 100 µM. For the same molecule, the TGI (HCT-116 colon) was over 100 µM, the TGI (HCT-15 colon) was over 100 µM and the TGI (HOP-18 NSCLC) was over 100 µM. For the same molecule, the TGI (HOP-62 NSCLC) was over 100 µM, the TGI (HOP-92 NSCLC) was over 100 µM and the TGI (HT29 colon) was over 100 µM. The TGI (IGROV1 ovarian) was over 100 µM, the TGI (K-562 leukemia) was over 100 µM and the TGI (KM12 colon) was over 100 µM. For the same molecule, the TGI (KM20L2 colon) was over 100 µM, the TGI (LOX IMVI melanoma) was over 100 µM and the TGI (LXFL 529 NSCLC) was over 100 µM. The TGI (M14 melanoma) was over 100 µM, the TGI (M19-MEL melanoma) was over 100 µM and the TGI (MALME-3M melanoma) was over 100 µM. The TGI (MOLT-4 leukemia) was over 100 µM, the TGI (NCI-H226 lung) was over 100 µM and the TGI (NCI-H23 lung) was over 100 µM. It also gave a TGI (NCI-H460 lung) of over 100 µM, a TGI (NCI-H522 lung) of over 100 µM and a TGI (OVCAR-3 ovarian) of over 100 µM. For the same molecule, the TGI (OVCAR-4 ovarian) was over 100 µM, the TGI (OVCAR-5 ovarian) was over 100 µM and the TGI (OVCAR-8 ovarian) was over 100 µM. The TGI (RPMI-8226 leukemia) was over 100 µM, the TGI (RXF 393 renal) was over 100 µM and the TGI (SF-268 CNS) was over 100 µM. It also gave a TGI (SF-295 CNS) of over 100 µM, a TGI (SF-539 CNS) of over 100 µM and a TGI (SK-MEL-2 melanoma) of over 100 µM. For the same molecule, the TGI (SK-MEL-28 melanoma) was over 100 µM, the TGI (SK-MEL-5 melanoma) was over 100 µM and the TGI (SK-OV-3 ovarian) was over 100 µM. It also gave a TGI (SN12C renal) of over 100 µM, a TGI (SNB-19 CNS) of over 100 µM and a TGI (SNB-75 CNS) of over 100 µM. For the same molecule, the TGI (SNB-78 CNS) was over 100 µM, the TGI (SW-620 colon) was over 100 µM and the TGI (TK-10 renal) was over 100 µM. The TGI (U251 CNS) was over 100 µM, the TGI (UACC-257 melanoma) was over 100 µM and the TGI (UACC-62 melanoma) was over 100 µM. The TGI (UO-31 renal) was over 100 µM and the TGI (XF 498 CNS) was over 100 µM.
